Assay results taken from PMC8496750, “Identification of the organic anion transporting polypeptides responsible for the hepatic uptake of the major metabolite of epyrifenacil, S‐3100‐CA, in mice” (Pharmacology Research & Perspectives, 2021).
Read-outs that look alike come from different tables or passages of the source.

Assay: Metabolite analysis in plasma, liver, and kidney (TLC)
Format: in vivo, Crl:CD1(ICR) mice
Settings: Crl:CD1(ICR), mouse
From the text: Precoated silica gel 60 F254 chromatoplate (20 × 20 cm, 0.25‐ or 0.5‐mm layer thickness, Merck KGaA) was used for two‐dimensional thin layer chromatography (2D‐TLC) analysis. The solvent systems were ethyl formate/formic acid (95/5, v/v) for the first dimension, and ethyl acetate/acetic acid (95/5, v/v) for the second dimension. The radioactivity on the TLC plates was detected by autoradiography using an imaging plate processed with a fluoro‐image analyzer (FLA‐9500, GE Healthcare). The identity of the metabolites was confirmed by co‐chromatography in comparison with authentic metabolite standards.
Three mice per sex at 8 weeks old were given a single oral dose of [^14C]epyrifenacil at 1 mg/kg with or without co‐administration of OATP inhibitors. […] At 2 h after administration of [^14C]epyifenacil, the animals were euthanized by whole blood collection from the abdominal aorta under anesthesia with isoflurane. The sampling time point was selected as the time around T max based on the result of the blood ^14C‐concentration study. Then, the liver and kidney were dissected out, and the amount of ^14C was measured. Aliquots of heparinized blood samples were separated into blood cells and plasma by centrifugation at 2000g for 10 min at 4°C. The total weight of the liver and kidney was determined for each animal. Two aliquots of plasma and tissue samples (approximately 0.05–0.1 g) were weighed in a glass vial, and the radioactivity was measured.
Approximately 0.3 g of liver, kidney, and plasma samples were pooled, respectively, for each dose and gender to obtain samples for analysis. Pooled liver, kidney, and plasma (ca. 1 g each) samples were homogenized with an approximately 3‐fold volume (v/w) of methanol using the mixer mill MM400 (5 min, 25 cycles/second, Retsch GmbH) and centrifuged (10 000g, 5 min, 4°C) to separate the supernatants from the residues. The extraction was repeated one additional time. The supernatants obtained were pooled and labeled liver, kidney, and plasma extracts. These samples were concentrated and then subjected to TLC analysis. For calculation of extraction efficacy, the post‐extraction solids (PESs) from the tissues and plasma extracts were sampled in low potassium glass vials. PESs were solubilized with 3 M potassium hydroxide solution (approximately 1 ml), then bleached with 30% hydrogen peroxide solution, and finally mixed with 10 ml of Hionic‐Fluor to measure the radioactivity.

[1] = kidney, oral, with rifampicin (OATP inhibitor) 200 mg/kg p.o., Male, 2 h after [^14C]Epyrifenacil 1 mg/kg p.o. + Rifampicin 200 mg/kg p.o., read-out: Metabolite concentration, Kidney
[2] = kidney, oral, Female, 2 h after [^14C]Epyrifenacil 1 mg/kg p.o., read-out: Metabolite concentration, Kidney
[3] = kidney, oral, Male, 2 h after [^14C]Epyrifenacil 1 mg/kg p.o., read-out: Metabolite concentration, Kidney
[4] = liver, oral, Female, 2 h after [^14C]Epyrifenacil 1 mg/kg p.o., read-out: Metabolite concentration, Liver
[5] = liver, oral, Male, 2 h after [^14C]Epyrifenacil 1 mg/kg p.o., read-out: Metabolite concentration, Liver
[6] = plasma, oral, Female, 2 h after [^14C]Epyrifenacil 1 mg/kg p.o., read-out: Metabolite concentration, Plasma
[7] = plasma, oral, Male, 2 h after [^14C]Epyrifenacil 1 mg/kg p.o., pooled samples, read-out: Metabolite concentration, Plasma

In the case of `CNC(=O)Nc1cc(Oc2cccnc2OCC(=O)O)c(Cl)cc1F` [M2], the concentration at 2 h [1] is reported as 1 ng/g, the concentration at 2 h [2] is reported as 2 ng/g and the concentration at 2 h [3] is reported as 4 ng/g. It also gave a concentration at 2 h [4] of 11 ng/g, a concentration at 2 h [5] of 24 ng/g and a concentration at 2 h (plasma, oral, with rifampicin (OATP inhibitor) 200 mg/kg p.o., Female, 2 h after [^14C]Epyrifenacil 1 mg/kg p.o. + Rifampicin 200 mg/kg p.o., read-out: Metabolite concentration, Plasma) of 16 ng/g. The concentration at 2 h (plasma, oral, with rifampicin (OATP inhibitor) 200 mg/kg p.o., Male, 2 h after [^14C]Epyrifenacil 1 mg/kg p.o. + Rifampicin 200 mg/kg p.o., read-out: Metabolite concentration, Plasma) was 35 ng/g, the concentration at 2 h [6] was 55 ng/g and the concentration at 2 h [7] was 20 ng/g.
`Cn1c(C(F)(F)F)cc(=O)n(-c2cc(Oc3ccc[nH]c3=O)c(Cl)cc2F)c1=O` [M6] showed a concentration at 2 h [1] of 1 ng/g, a concentration at 2 h [2] of 4 ng/g and a concentration at 2 h [3] of 8 ng/g. It also gave a concentration at 2 h [4] of 6 ng/g, a concentration at 2 h [5] of 12 ng/g and a concentration at 2 h [6] of 15 ng/g. For the same compound, the concentration at 2 h [7] was 3 ng/g.
In the case of `CN1C(=O)N(c2cc(Oc3cccnc3OCC(=O)O)c(Cl)cc2F)C(=O)CC1(O)C(F)(F)F` (centres unmarked) [M4], the concentration at 2 h (female, in vivo, 1 mg/kg, Female, 2 h after [^14C]Epyrifenacil 1 mg/kg p.o., read-out: Metabolite concentration, Kidney) is reported as 23 ng/g, the concentration at 2 h (female, in vivo, 1 mg/kg, Female, 2 h after [^14C]Epyrifenacil 1 mg/kg p.o., read-out: Metabolite concentration, Liver) is reported as 858 ng/g and the concentration at 2 h (female, in vivo, Female, 2 h after [^14C]Epyrifenacil 1 mg/kg p.o. + Digoxin 100 mg/kg i.p., read-out: Metabolite concentration, Kidney) is reported as 30 ng/g. It also gave a concentration at 2 h (female, in vivo, Female, 2 h after [^14C]Epyrifenacil 1 mg/kg p.o. + Digoxin 100 mg/kg i.p., read-out: Metabolite concentration, Liver) of 553 ng/g, a concentration at 2 h (female, in vivo, Female, 2 h after [^14C]Epyrifenacil 1 mg/kg p.o. + Digoxin 200 mg/kg p.o., read-out: Metabolite concentration, Kidney) of 7 ng/g and a concentration at 2 h (female, in vivo, Female, 2 h after [^14C]Epyrifenacil 1 mg/kg p.o. + Digoxin 200 mg/kg p.o., read-out: Metabolite concentration, Liver) of 291 ng/g. It also gave a concentration at 2 h (female, in vivo, Female, 2 h after [^14C]Epyrifenacil 1 mg/kg p.o. + Rifampicin 200 mg/kg p.o., read-out: Metabolite concentration, Kidney) of 15 ng/g, a concentration at 2 h (female, in vivo, Female, 2 h after [^14C]Epyrifenacil 1 mg/kg p.o. + Rifampicin 200 mg/kg p.o., read-out: Metabolite concentration, Liver) of 129 ng/g and a concentration at 2 h (female, in vivo, Female, 2 h after [^14C]Epyrifenacil 1 mg/kg p.o. + Rifampicin 200 mg/kg p.o., read-out: Metabolite concentration, Plasma) of 22 ng/g. The concentration at 2 h (male, in vivo, 1 mg/kg, Male, 2 h after [^14C]Epyrifenacil 1 mg/kg p.o., pooled samples, read-out: Metabolite concentration, Plasma) was 3 ng/g, the concentration at 2 h (male, in vivo, 1 mg/kg, Male, 2 h after [^14C]Epyrifenacil 1 mg/kg p.o., read-out: Metabolite concentration, Kidney) was 9 ng/g and the concentration at 2 h (male, in vivo, 1 mg/kg, Male, 2 h after [^14C]Epyrifenacil 1 mg/kg p.o., read-out: Metabolite concentration, Liver) was 1030 ng/g. The concentration at 2 h (male, in vivo, Male, 2 h after [^14C]Epyrifenacil 1 mg/kg p.o. + Digoxin 100 mg/kg i.p., read-out: Metabolite concentration, Kidney) was 14 ng/g, the concentration at 2 h (male, in vivo, Male, 2 h after [^14C]Epyrifenacil 1 mg/kg p.o. + Digoxin 100 mg/kg i.p., read-out: Metabolite concentration, Liver) was 651 ng/g and the concentration at 2 h (male, in vivo, Male, 2 h after [^14C]Epyrifenacil 1 mg/kg p.o. + Digoxin 200 mg/kg p.o., read-out: Metabolite concentration, Kidney) was 5 ng/g. It also gave a concentration at 2 h (male, in vivo, Male, 2 h after [^14C]Epyrifenacil 1 mg/kg p.o. + Digoxin 200 mg/kg p.o., read-out: Metabolite concentration, Liver) of 157 ng/g, a concentration at 2 h (male, in vivo, Male, 2 h after [^14C]Epyrifenacil 1 mg/kg p.o. + Rifampicin 200 mg/kg p.o., read-out: Metabolite concentration, Kidney) of 22 ng/g and a concentration at 2 h (male, in vivo, Male, 2 h after [^14C]Epyrifenacil 1 mg/kg p.o. + Rifampicin 200 mg/kg p.o., read-out: Metabolite concentration, Liver) of 172 ng/g. It also gave a concentration at 2 h (male, in vivo, Male, 2 h after [^14C]Epyrifenacil 1 mg/kg p.o. + Rifampicin 200 mg/kg p.o., read-out: Metabolite concentration, Plasma) of 4 ng/g.
